In patent EP3720857B1, “2-OXO-5H-CHROMENO[4,3-B]PYRIDINES FOR USE IN THE TREATMENT OF HEPATITIS B” (Galapagos NV, priority 2017, dated 2019):

Tests used:
[1] = test system: HBV; test: Humanized mouse model of HBV infection in human-murine liver chimeric mice; assay type: in vivo, FRG KO mice; design: unit not given here; settings: n=6
Method: (asterisks), the group treated with illustrative compound 46 at 3 mg/kg p.o. q.d. (asterisks), the group treated with illustrative compound 46 at 30 mg/kg p.o. q.d. (filled squares), the group treated with illustrative compound 44 at 1 mg/kg p.o. q.d. (crosses), and the group treated with illustrative compound 44 at 10 mg/kg p.o. q.d. (filled circles).
Six to ten weeks old male or female FRG KO mice (Fah-/-/Rag2-/-/Il2rg-/-triple knock-out - Yecuris Corporation P.O. Box 4645, Tualatin, OR 97062, USA) are used. They are provided with filtered tap water and standard chow ad libitum and maintained at 22 ± 2°C in 55 ± 10% humidity on a 12h light/dark cycle.
Each mouse is repopulated by intra splenic injection of 1 to 2 10^6 human hepatocytes (Life Technologies ref HMCS2SA). To allow a progressive and efficacious repopulation, drinking water is regularly supplemented with Nitisinone (Yecuris, lot TNAK0002). The repopulation rate is controlled by hAlb dosage in serum (Euromedex ref E88-129). About 3 to 4 months after the human hepatocyte injection, mice for which repopulation is successful reach an hAlb level >1g/L and can be used for HBV infection.
The test compounds for p.o administration are formulated in Solutol at 2% (Sigma : Kolliphor hS15 12966-1kg lot BCBM0868V) and methylcellulose 0.5% at 98%
Each mouse is injected with HBV-2015 batch ([…]) with an inoculum of 1.38 10^8 GE HBV (0.2 mL) via tail vein.
Six to seven weeks after infection, blood is sampled under isoflurane anesthesia by retro-orbital puncture. HBsAg is dosed in serum by Elisa assay (Immunodiagnostic, ref HBSAG EIA). HBV DNA level is measured in the mice serum using qPCR (SYBR green). Only mice reaching HBsAg level above 1000UI/mL are kept and randomized.
Treatment is given for 5 weeks according to body weight.
Body weight is recorded every week.
Between Day 7 and Day 11, a steady state PK is performed with sampling of blood under isoflurane anesthesia by retro-orbital puncture at T=0, 1h, 3h, 6h post treatment. Plasma are frozen before decontamination with ethanol absolute 80% and transfer to bioanalysis laboratory for compound dosage by LCMS-MS.
At […], D8, D15, D22 and D28, blood is sampled under isoflurane anesthesia by retro-orbital puncture. To follow compounds efficacy, HBsAg is dosed in serum by Elisa assay (Immunodiagnostic, ref HBSAG EIA) and HBV DNA level is measured in serum using qPCR (SYBR green).
After 5 weeks of treatment, mice are euthanized 2 hours after the last dosing for liver and blood collection.
In blood HBsAg is measured by Elisa assay, HBV DNA by qPCR and compound level by LCMS-MS.
In liver HBV DNA is measured by qPCR, compound level by LCMS-MS, pgRNA by RT-qPCR, HBcAg by immunohistochemistry (Dako ref B0586).
When subjected to this protocol, the following results for illustrative compounds of the invention are obtained. Table VII. Infected mice HBsAg blood level variation

[2] = test system: HBV; test: as above; assay type: in vivo, FRG KO mice; design: unit not given here; settings: D1, mean, n=6

**Q.** What does the source list for `COCCCOc1cc2c(cc1F)-c1c(cc(C(=O)O)c(=O)n1C1CC1)[C@H](C(C)C)O2` [Compound 44, (5S)-1-cyclopropyl-9-fluoro-5-isopropyl-8-(3-methoxypropoxy)-2-oxo-5H-chromeno[4,3-b]pyridine-3-carboxylic acid]?
**A.** Infected mice HBsAg blood level ([1]; 1 mg/kg p.o q.d, D1, mean): 4.5; Infected mice HBsAg blood level ([1]; 1 mg/kg p.o q.d, D8, mean): 3.6; Infected mice HBsAg blood level ([1]; 1 mg/kg p.o q.d, D15, mean): 3.5; Infected mice HBsAg blood level ([1]; 1 mg/kg p.o q.d, D22, mean): 3.5; Infected mice HBsAg blood level ([1]; 1 mg/kg p.o q.d, D28, mean): 3.6; Infected mice HBsAg blood level ([1]; 10 mg/kg p.o q.d, D1, mean): 4.4; Infected mice HBsAg blood level ([1]; 10 mg/kg p.o q.d, D8, mean): 3.4; Infected mice HBsAg blood level ([1]; 10 mg/kg p.o q.d, D15, mean): 3.5; Infected mice HBsAg blood level ([1]; 10 mg/kg p.o q.d, D22, mean): 3.4; Infected mice HBsAg blood level ([1]; 10 mg/kg p.o q.d, D28, mean): 3.4

**Q.** For `COCCCOc1cc2c(cc1Cl)-c1c(cc(C(=O)O)c(=O)n1C1CC1)[C@H](C1(C)COC1)O2` [Compound 46, (5R)-9-chloro-1-cyclopropyl-8-(3-methoxypropoxy)-5-(3-methyloxetan-3-yl)-2-oxo-5H-chromeno[4,3-b]pyridine-3-carboxylic acid], which “Infected mice HBsAg blood level” value ([2]; 0.3 mg/kg p.o q.d) is on record?
**A.** 4.4

**Q.** And the “Infected mice HBsAg blood level” value ([2]; 3 mg/kg p.o q.d)?
**A.** 4.4

**Q.** And the “Infected mice HBsAg blood level” value ([1]; 0.3 mg/kg p.o q.d, D8, mean)?
**A.** 3.7

**Q.** What about the “Infected mice HBsAg blood level” value ([1]; 0.3 mg/kg p.o q.d, D15, mean) of the same compound?
**A.** 3.8

**Q.** And the “Infected mice HBsAg blood level” value ([1]; 0.3 mg/kg p.o q.d, D22, mean)?
**A.** 3.9

**Q.** What about the “Infected mice HBsAg blood level” value ([1]; 0.3 mg/kg p.o q.d, D28, mean) of the same compound?
**A.** 3.7

**Q.** What about the “Infected mice HBsAg blood level” value ([1]; 3 mg/kg p.o q.d, D8, mean) of the same compound?
**A.** 3.4

**Q.** And the “Infected mice HBsAg blood level” value ([1]; 3 mg/kg p.o q.d, D15, mean)?
**A.** 3.4

**Q.** What about the “Infected mice HBsAg blood level” value ([1]; 3 mg/kg p.o q.d, D22, mean) of the same compound?
**A.** 3.4

**Q.** What about the “Infected mice HBsAg blood level” value ([1]; 3 mg/kg p.o q.d, D28, mean) of the same compound?
**A.** 3.4

**Q.** And the “Infected mice HBsAg blood level” value ([1]; 30 mg/kg p.o q.d, D1, mean)?
**A.** 4.4

**Q.** And the “Infected mice HBsAg blood level” value ([1]; 30 mg/kg p.o q.d, D8, mean)?
**A.** 3.5

**Q.** What about the “Infected mice HBsAg blood level” value ([1]; 30 mg/kg p.o q.d, D15, mean) of the same compound?
**A.** 3.5

**Q.** What about the “Infected mice HBsAg blood level” value ([1]; 30 mg/kg p.o q.d, D22, mean) of the same compound?
**A.** 3.4

**Q.** And the “Infected mice HBsAg blood level” value ([1]; 30 mg/kg p.o q.d, D28, mean)?
**A.** 3.5
